Experimental findings from ChEMBL document CHEMBL6182949 (J Med Chem, 2025) are described below.

The structures appear in SMILES notation. Calls of active or inactive are those of the source. No cut-off for these calls is given here.

A short description of data set [1]: Inhibition of LPS-stimulated IL-6 release in human PBMC cells. It counts as functional, cell-based.
The subject of data set [2] is Mus musculus. Briefly: Anti-psoriasis effect in IMQ-induced C57BL/6 mouse assessed as reduction in cumulative score at 100 mg/kg administered topically twice daily for 6 days and measured after 24 hrs. The format is functional, organism-based. Particulars: time 7.0 day.
Data set [3] deals with T1, Protein cereblon/Interleukin-1 receptor-associated kinase 4 (Homo sapiens, UniProt Q9NWZ3+Q96SW2). Briefly: PROTAC activity at CRBN/IRAK4 in human PBMC cells assessed as induction of IRAK4 degradation incubated for 24 hrs by HiBiT lytic reagent based analysis relative to control. The format is cell-based.
Target sequence in this assay (Q96SW2 whole entry, looked up, one chain of several): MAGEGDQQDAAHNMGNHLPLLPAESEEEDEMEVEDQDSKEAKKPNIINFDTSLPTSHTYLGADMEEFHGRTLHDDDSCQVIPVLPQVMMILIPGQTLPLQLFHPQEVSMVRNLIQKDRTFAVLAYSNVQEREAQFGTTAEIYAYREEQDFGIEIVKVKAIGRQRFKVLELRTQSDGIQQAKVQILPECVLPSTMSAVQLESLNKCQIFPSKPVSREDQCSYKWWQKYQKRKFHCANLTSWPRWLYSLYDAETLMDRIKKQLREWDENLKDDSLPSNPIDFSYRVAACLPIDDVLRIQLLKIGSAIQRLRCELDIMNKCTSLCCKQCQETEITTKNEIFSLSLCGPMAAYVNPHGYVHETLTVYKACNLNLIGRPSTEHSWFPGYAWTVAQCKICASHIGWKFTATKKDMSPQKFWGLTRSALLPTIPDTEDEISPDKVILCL
The subject of data set [4] is Mus musculus. As to the kind of experiment: Anti-psoriasis effect in IMQ-induced C57BL/6 mouse assessed as reduction in cumulative score at 30 mg/kg administered topically twice daily for 6 days and measured after 24 hrs. To be noted: time 7.0 day. It counts as functional, organism-based.
Data set [5] relates to Mus musculus. Briefly: Anti-psoriasis effect in IMQ-induced C57BL/6 mouse assessed as reduction in delta ear thickness at 30 mg/kg administered topically twice daily for 6 days and measured after 24 hrs. The format is functional, organism-based. Particulars: time 7.0 day.
Data set [6] concerns Mus musculus. Briefly: Anti-psoriasis effect in IMQ-induced C57BL/6 mouse assessed as reduction in delta ear thickness at 100 mg/kg administered topically twice daily for 6 days and measured after 24 hrs. It counts as functional, organism-based. Particulars: time 7.0 day.
In data set [7] the target is T2, Interleukin-1 receptor-associated kinase 4 (Homo sapiens, UniProt Q9NWZ3).
T2 sequence (Q9NWZ3 whole entry): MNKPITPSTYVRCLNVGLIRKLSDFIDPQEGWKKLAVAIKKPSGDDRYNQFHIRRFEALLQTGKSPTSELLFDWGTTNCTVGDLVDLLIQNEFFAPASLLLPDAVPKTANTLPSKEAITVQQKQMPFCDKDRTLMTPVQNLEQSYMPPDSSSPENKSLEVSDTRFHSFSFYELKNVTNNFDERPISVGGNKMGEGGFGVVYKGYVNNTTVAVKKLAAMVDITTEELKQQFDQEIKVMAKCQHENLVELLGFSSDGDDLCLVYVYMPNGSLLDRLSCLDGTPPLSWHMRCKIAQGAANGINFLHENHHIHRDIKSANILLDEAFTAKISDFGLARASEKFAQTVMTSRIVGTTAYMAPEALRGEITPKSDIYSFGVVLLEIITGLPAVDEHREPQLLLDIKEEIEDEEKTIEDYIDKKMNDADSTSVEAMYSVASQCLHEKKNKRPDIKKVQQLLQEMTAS
As to the kind of experiment: Inhibition of IRAK4 (unknown origin).

For data set [8], the target named is T1, Protein cereblon/Interleukin-1 receptor-associated kinase 4. As to the kind of experiment: PROTAC activity at CRBN/IRAK4 in human THP-1 cells assessed as induction of IRAK4 degradation incubated for 24 hrs by HiBiT lytic reagent based analysis relative to control. It counts as cell-based. A general note: HiBiT is a short tag that completes a luciferase, so light tracks the accessible tagged protein.
Target sequence in this assay (Q96SW2 whole entry, looked up, one chain of several): as the sequence (Q96SW2 whole entry, looked up, one chain of several) above

The target is the same in data set [9]. As to the kind of experiment: PROTAC activity at CRBN/IRAK4 in human THP-1 cells assessed as induction of IRAK4 degradation incubated for 24 hrs by HiBiT lytic reagent based analysis. It counts as cell-based.
Target sequence in this assay (Q96SW2 whole entry, one chain of several): as the sequence (Q96SW2 whole entry, looked up, one chain of several) above
The nature of data set [10]: Metabolic stability in mouse liver microsome assessed as half life at 1 uM measured up to 60 mins in presence of NADPH by LC-MS/MS analysis. The format is ADME. To be noted: liver microsomes. A general note: Microsomes from liver hold many membrane-bound enzymes, among them those of drug oxidation.
Data set [11] in a line: Metabolic stability in human liver microsome assessed as half life at 1 uM measured up to 60 mins in presence of NADPH by LC-MS/MS analysis. The format is ADME. Particulars: liver microsomes.
The next data set has as its target hERG (Homo sapiens, UniProt Q12809). Briefly: Inhibition of hERG expressed in HEK293 cells at 10 uM by manual patch clamp assay relative to control. The format is toxicity, cell-based. Particulars: HEK293 cells expressing hERG. (The hERG channel carries a current that helps repolarise heart muscle cells.)
A short description of data set [12]: Metabolic stability in dog liver microsome assessed as half life at 1 uM measured up to 60 mins in presence of NADPH by LC-MS/MS analysis. It counts as ADME, Canis lupus familiaris. To be noted: liver microsomes.

hERG, sequence (Q12809 whole entry): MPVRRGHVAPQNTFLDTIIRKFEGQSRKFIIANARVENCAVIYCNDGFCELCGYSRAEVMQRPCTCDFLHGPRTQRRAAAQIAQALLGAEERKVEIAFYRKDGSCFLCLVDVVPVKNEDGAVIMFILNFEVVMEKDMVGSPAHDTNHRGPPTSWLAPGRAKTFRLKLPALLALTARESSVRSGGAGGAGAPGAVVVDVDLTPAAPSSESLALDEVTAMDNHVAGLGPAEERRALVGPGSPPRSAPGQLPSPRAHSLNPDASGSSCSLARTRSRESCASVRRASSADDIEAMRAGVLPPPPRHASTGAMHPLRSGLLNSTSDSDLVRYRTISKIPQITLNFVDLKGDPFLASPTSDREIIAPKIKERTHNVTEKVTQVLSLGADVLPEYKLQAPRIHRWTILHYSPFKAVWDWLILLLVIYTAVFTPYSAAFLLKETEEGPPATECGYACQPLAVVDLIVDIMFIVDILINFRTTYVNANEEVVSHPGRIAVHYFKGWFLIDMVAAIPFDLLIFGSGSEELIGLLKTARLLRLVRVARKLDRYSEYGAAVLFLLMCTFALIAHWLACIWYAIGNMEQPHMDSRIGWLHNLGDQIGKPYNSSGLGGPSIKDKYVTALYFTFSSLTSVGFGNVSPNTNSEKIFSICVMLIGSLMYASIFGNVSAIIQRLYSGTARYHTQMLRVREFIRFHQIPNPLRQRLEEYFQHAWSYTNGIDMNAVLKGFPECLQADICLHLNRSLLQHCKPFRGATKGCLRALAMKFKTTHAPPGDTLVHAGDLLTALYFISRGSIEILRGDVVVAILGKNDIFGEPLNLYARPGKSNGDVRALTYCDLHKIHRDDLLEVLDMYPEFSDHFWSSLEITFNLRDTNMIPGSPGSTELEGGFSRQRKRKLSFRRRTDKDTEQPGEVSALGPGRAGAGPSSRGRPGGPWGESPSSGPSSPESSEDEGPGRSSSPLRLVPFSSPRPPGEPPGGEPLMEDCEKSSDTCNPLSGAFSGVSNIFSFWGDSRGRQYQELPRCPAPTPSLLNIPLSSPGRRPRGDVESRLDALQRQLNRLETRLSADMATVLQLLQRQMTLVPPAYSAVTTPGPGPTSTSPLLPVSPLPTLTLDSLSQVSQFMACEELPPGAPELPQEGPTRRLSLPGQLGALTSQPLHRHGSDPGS

What is called IC50 is the concentration needed to halve the response being measured. The low end stands for inhibition by little substance, the high end for a need for much substance. In general, Emax refers to the greatest response seen or fitted, relative to the assay's reference. In data set [1], `Cn1c(=O)n(C2CCC(=O)NC2=O)c2cccc(C#CCOC3CCN(C[C@H]4CC[C@H](n5cc(NC(=O)c6cnn7ccc(N8C[C@H]9C[C@@H]8CO9)nc67)c(C(F)F)n5)CC4)CC3)c21` (stereo partly drawn) [KT-474] displayed an IC50 of 29.1 nM. Also, the result in the data set on Mus musculus [2], in the data set on Mus musculus [4], in the data set with Mus musculus [5] and with Mus musculus [6] was inactive. The Emax in data set [3] worked out at 82%.

On to `CN1CCC2(CC1)Cc1cc(NC(=O)c3cnn4cccnc34)c(N3CCC(CO)CC3)cc1O2`, for which half-maximal inhibition in data set [7] (IC50) required 0.91 nM.

By DC50 is commonly meant the concentration giving 50% degradation. What is called half-life is the time in which the quantity being followed falls by half. For orientation: inhibition means the change of the read-out against control, counted positive when it falls. Higher therefore signals a response far below the control. On to `Cn1c(=O)n(C2CCC(=O)NC2=O)c2cccc(C#CCO[C@H]3CC[C@H](CN4CCC5(CC4)Cc4cc(NC(=O)c6cnn7cccnc67)c(N6CCC(C(=O)O)CC6)cc4O5)CC3)c21` (stereo partly drawn), for which, in data set [8], the Emax came to 38%. In addition, the DC50 in data set [9] is 12 nM. Also, the half-life at 1 µM in data set [10], in data set [11] and in data set [12] was above 184 min throughout. On hERG, this molecule gave an inhibition at 10 µM of 43%.
